Data published in patent publication US6914045B2, “Glycopeptide antibiotics” (Wyeth Holdings Corporation, priority 2001, dated 2005).

Key:
Experiment in all cases: in vitro antibacterial evaluation, MIC by broth dilution
Format in all cases: cell-based
[1] = test system: Enterococcus sp.; details: broth dilution, 18 hours at 35° C.
Summary of the method: (§1)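 MIC, the lowest antibiotic concentration preventing growth, was read across 64-0.06 μg/mL with 5×10^5 CFU/mL inoculum. Method followed NCCLS M7-A2 broth dilution using Mueller-Hinton II; Gram-positive strains covered recent methicillin-, penicillin- and/or vancomycin-resistant clinical isolates.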

[2] = test system: Streptococcus sp.; details: broth dilution, 18 hours at 35° C.
Summary of the method: as §1

[3] = test system: Escherichia coli; details: 18 hours at 35° C.
Summary of the method: as §1

[4] = test system: Staphylococcus sp.; details: broth dilution, 18 hours at 35° C.
Summary of the method: as §1

CC(c1ccccc1)C1NC(=O)CNC(=O)C(CO)NC(=O)C(C(O)C2CNC(=N)N2C2OC(CO)C(O)C(O)C2O)NC(=O)C(C(O)C2CNC(=N)N2)NC(=O)C(Cc2ccc(OC3OC(CO)C(OC4OC5COC(C67CC8CC(CC(C8)C6)C7)OC5C(O)C4O)C(O)C3O)cc2)NC1=O (stereo not drawn) [Example 127]
<0.12 µg/mL: MIC Streptococcus agalactiae (GC 4564) ([2]; Streptococcus agalactiae (GC 4564)) | MIC Streptococcus pneumoniae (ATCC 6301) ([2]; Streptococcus pneumoniae (ATCC 6301)) | MIC Streptococcus pneumoniae (GC 1894) ([2]; Streptococcus pneumoniae (GC 1894)) | MIC Streptococcus pneumoniae (GC 4565) ([2]; Streptococcus pneumoniae (GC 4565)) | MIC Streptococcus pneumoniae (ATCC 6301) ([2]; strain ATCC 6301) | MIC Streptococcus pneumoniae (GC 1894) ([2]; strain GC 1894) | MIC Streptococcus agalactiae (GC 4564) ([2]; strain GC 4564) | MIC Streptococcus pneumoniae (GC 4565) ([2]; strain GC 4565)
64 µg/mL: MIC Escherichia coli (ATCC 25922) ([3]; strain ATCC 25922) | MIC Escherichia coli (GC 4559) ([3]; strain GC 4559)
4 µg/mL: MIC Enterococcus faecalis (GC 2242) ([1]; Enterococcus faecalis (GC 2242)) | MIC Enterococcus faecalis (GC 2691) ([1]; Enterococcus faecalis (GC 2691)) | MIC Enterococcus faecalis (GC 4552) ([1]; Enterococcus faecalis (GC 4552)) | MIC Enterococcus faecalis (GC 4553) ([1]; Enterococcus faecalis (GC 4553)) | MIC Enterococcus faecalis (GC 4554) ([1]; Enterococcus faecalis (GC 4554)) | MIC Enterococcus faecium (GC 2243) ([1]; Enterococcus faecium (GC 2243)) | MIC Enterococcus faecium (GC 4556) ([1]; Enterococcus faecium (GC 4556)) | MIC Enterococcus faecium (GC 4557) ([1]; Enterococcus faecium (GC 4557)) | MIC Enterococcus faecalis (GC 2242) ([1]; strain GC 2242) | MIC Enterococcus faecium (GC 2243) ([1]; strain GC 2243) | MIC Enterococcus faecalis (GC 2691) ([1]; strain GC 2691) | MIC Enterococcus faecalis (GC 4552) ([1]; strain GC 4552) | MIC Enterococcus faecalis (GC 4553) ([1]; strain GC 4553) | MIC Enterococcus faecalis (GC 4554) ([1]; strain GC 4554) | MIC Enterococcus faecium (GC 4556) ([1]; strain GC 4556) | MIC Enterococcus faecium (GC 4557) ([1]; strain GC 4557) | MIC Escherichia coli (GC 4560) ([3]; strain GC 4560) | MIC Staphylococcus aureus (GC 1131) [4] | MIC Staphylococcus aureus (GC 4541) [4] | MIC Staphylococcus aureus (GC 4544) [4] | MIC Staphylococcus aureus (GC 1131) ([4]; inoculum 5×10^5 CFU/mL, strain GC 1131) | MIC Staphylococcus aureus (GC 4541) ([4]; strain GC 4541) | MIC Staphylococcus aureus (GC 4544) ([4]; strain GC 4544) | MIC Coagulase Negative Staphylococcus (GC 4547) ([4]; strain GC 4547)
1 µg/mL: MIC Coagulase Negative Staphylococcus (GC 4549) ([4]; strain GC 4549)
0.25 µg/mL: MIC Streptococcus pyogenes (GC 4563) ([2]; Streptococcus pyogenes (GC 4563)) | MIC Streptococcus pyogenes (GC 4563) ([2]; strain GC 4563)
2 µg/mL: MIC Enterococcus avium (GC 4558) ([1]; Enterococcus avium (GC 4558)) | MIC Enterococcus faecalis (ATCC 29212) ([1]; Enterococcus faecalis (ATCC 29212)) | MIC Enterococcus faecalis (GC 3059) ([1]; Enterococcus faecalis (GC 3059)) | MIC Enterococcus faecalis (GC 6189) ([1]; Enterococcus faecalis (GC 6189)) | MIC Enterococcus faecalis (ATCC 29212) ([1]; strain ATCC 29212) | MIC Enterococcus faecalis (GC 3059) ([1]; strain GC 3059) | MIC Enterococcus avium (GC 4558) ([1]; strain GC 4558) | MIC Enterococcus faecalis (GC 6189) ([1]; strain GC 6189) | MIC Staphylococcus aureus (ATCC 29213) [4] | MIC Staphylococcus aureus (GC 3051) [4] | MIC Staphylococcus aureus (GC 3053) [4] | MIC Staphylococcus aureus (GC 4542) [4] | MIC Staphylococcus aureus (GC 4545) [4] | MIC Staphylococcus aureus (ATCC 29213) ([4]; strain ATCC 29213) | MIC Staphylococcus aureus (GC 3051) ([4]; strain GC 3051) | MIC Staphylococcus aureus (GC 3053) ([4]; strain GC 3053) | MIC Staphylococcus aureus (GC 4542) ([4]; strain GC 4542) | MIC Staphylococcus aureus-SMITH (GC 4543) ([4]; strain GC 4543) | MIC Staphylococcus aureus (GC 4545) ([4]; strain GC 4545) | MIC Staphylococcus haemolyticus (GC 4546) ([4]; strain GC 4546) | MIC Coagulase Negative Staphylococcus (GC 4548) ([4]; strain GC 4548) | MIC Coagulase Negative Staphylococcus (GC 4551) ([4]; strain GC 4551) | MIC Staphylococcus aureus-SMITH (GC 4543) ([4]; strain SMITH GC 4543)
